This is an account of results in patent US20230278995A1, “1,3,4-OXADIAZOLE DERIVATIVE COMPOUNDS AS HISTONE DEACETYLASE 6 INHIBITOR, AND THE PHARMACEUTICAL COMPOSITION COMPRISING THE SAME” (CHONG KUN DANG PHARMACEUTICAL CORP., priority 2020, published 2023).

What is called IC50 is the concentration at which inhibition is half-maximal.

In test [1] the target is T1, human recombinant HDAC1 (Homo sapiens, UniProt Q13547).
T1 construct: purchased Enzo Life Sciences, Inc. BML-SE456
As to the kind of experiment: HDAC enzyme activity inhibition assay (HDAC Fluorimetric Drug Discovery Kit), HDAC1. The test is classed as biochemical. Particulars: human recombinant HDAC1, Fluor de Lys-SIRT1 substrate, 30° C. 60 minutes. The method, boiled down: (§1)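 The preceding reaction ran 60 min at 30 °C with 0.3 μg recombinant human enzyme, HDAC1 or HDAC6 under an identical protocol, and 10 μM Fluor de Lys-SIRT1 substrate, across 5-fold diluted compound.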

In test [2] the target is T2, human recombinant HDAC6 (Homo sapiens, UniProt Q9UBN7).
T2 construct: purchased Calbiochem Inc. 382180
T2 sequence (Q9UBN7 1-1215): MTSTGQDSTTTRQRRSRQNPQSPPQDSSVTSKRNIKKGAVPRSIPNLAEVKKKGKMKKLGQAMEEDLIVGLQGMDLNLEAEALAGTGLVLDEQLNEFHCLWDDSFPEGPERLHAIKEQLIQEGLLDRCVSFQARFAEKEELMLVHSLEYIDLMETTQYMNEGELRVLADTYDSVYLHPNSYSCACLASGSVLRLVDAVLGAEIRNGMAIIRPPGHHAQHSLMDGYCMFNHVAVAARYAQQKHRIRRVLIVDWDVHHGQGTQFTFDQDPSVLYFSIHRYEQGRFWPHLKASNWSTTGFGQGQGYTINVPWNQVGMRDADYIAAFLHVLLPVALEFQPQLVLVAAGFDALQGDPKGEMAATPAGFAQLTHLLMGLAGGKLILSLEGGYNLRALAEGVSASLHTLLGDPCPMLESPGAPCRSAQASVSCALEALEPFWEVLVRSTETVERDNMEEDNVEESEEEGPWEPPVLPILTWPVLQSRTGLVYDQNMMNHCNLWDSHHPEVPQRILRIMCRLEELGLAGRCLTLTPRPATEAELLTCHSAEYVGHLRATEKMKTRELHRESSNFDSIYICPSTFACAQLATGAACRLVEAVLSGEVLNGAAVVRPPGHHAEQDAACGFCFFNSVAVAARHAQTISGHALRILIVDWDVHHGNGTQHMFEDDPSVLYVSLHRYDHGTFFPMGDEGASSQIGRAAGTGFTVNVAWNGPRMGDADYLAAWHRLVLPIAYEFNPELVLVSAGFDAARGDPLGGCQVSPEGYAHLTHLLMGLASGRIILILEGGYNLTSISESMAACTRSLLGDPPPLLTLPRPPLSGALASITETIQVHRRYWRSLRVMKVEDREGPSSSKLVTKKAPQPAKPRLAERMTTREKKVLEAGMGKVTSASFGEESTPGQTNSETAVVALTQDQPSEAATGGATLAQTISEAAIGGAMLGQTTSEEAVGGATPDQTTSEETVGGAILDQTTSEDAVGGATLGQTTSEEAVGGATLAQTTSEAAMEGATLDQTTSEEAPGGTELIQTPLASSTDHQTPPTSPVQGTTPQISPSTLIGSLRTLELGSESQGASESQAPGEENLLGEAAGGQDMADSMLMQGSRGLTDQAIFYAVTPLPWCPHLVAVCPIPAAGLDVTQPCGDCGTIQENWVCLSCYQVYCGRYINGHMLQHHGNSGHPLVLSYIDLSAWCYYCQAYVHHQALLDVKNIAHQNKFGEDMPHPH
Put plainly: HDAC enzyme activity inhibition assay (HDAC Fluorimetric Drug Discovery Kit), HDAC6. The test is classed as biochemical. As to conditions: for HDAC6 selectivity (fold): HDAC1 vs HDAC6; for IC50: human recombinant HDAC6, same protocol as HDAC1. The method, boiled down: as §1

T1 sequence (Q13547 whole entry): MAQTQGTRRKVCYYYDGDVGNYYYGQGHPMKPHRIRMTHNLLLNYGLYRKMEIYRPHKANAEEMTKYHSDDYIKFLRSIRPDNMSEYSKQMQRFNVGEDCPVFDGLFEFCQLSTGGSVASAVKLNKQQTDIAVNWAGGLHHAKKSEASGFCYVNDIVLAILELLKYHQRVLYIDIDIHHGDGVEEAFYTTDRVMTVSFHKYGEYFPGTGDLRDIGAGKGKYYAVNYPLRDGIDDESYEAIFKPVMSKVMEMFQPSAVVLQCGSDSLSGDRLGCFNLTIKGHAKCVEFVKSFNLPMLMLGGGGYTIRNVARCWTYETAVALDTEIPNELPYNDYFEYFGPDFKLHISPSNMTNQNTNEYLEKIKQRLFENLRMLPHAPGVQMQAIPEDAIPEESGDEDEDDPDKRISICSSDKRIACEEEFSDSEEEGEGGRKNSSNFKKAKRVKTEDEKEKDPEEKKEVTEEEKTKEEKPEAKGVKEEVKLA

For `O=C(N(Cc1ccc(-c2nnc(C(F)F)o2)cn1)c1ccccc1)C1(F)CN(C2CCSCC2)C1` [Compound 3162, N-((5-(5-(difluoromethyl)-1,3,4-oxadiazol-2-yl)pyridin-2-yl)methyl)-3-fluoro-N-phenyl-1-(tetrahydro-2H-thiopyran-4-yl)azetidine-3-carboxamide], in test [1], the half-inhibitory concentration (IC50) is > 50 µM. Besides, in test [2], the “HDAC6 selectivity (fold)” value was 2,272 fold and the IC50 stood at 0.022 µM.

For the compound `CCC(=O)N1CC(F)(C(=O)N(Cc2ccc(-c3nnc(C(F)F)o3)cn2)c2cccc(F)c2)C1` [Compound 3163, N-((5-(5-(difluoromethyl)-1,3,4-oxadiazol-2-yl)pyridin-2-yl)methyl)-3-fluoro-N-(3-fluorophenyl)-1-propionylazetidine-3-carboxamide], the IC50 in test [1] was > 50 µM. Moreover, in test [2], the “HDAC6 selectivity (fold)” value is on record as 2,155 fold and the IC50 is 0.0232 µM.

Turning to `CC(=O)N1CC(F)(C(=O)N(Cc2ccc(-c3nnc(C(F)F)o3)cn2)c2cccc(F)c2)C1` [Compound 3164, 1-acetyl-N-((5-(5-(difluoromethyl)-1,3,4-oxadiazol-2-yl)pyridin-2-yl)methyl)-3-fluoro-N-(3-fluorophenyl)azetidine-3-carboxamide], the half-inhibitory concentration (IC50) in test [1] was > 50 µM. Besides, in test [2], the “HDAC6 selectivity (fold)” value was 2,808 fold and the IC50 was 0.0178 µM.

In the case of `CCCC(=O)N1CC(F)(C(=O)N(Cc2ccc(-c3nnc(C(F)F)o3)cn2)c2cccc(F)c2)C1` [Compound 3165, 1-butyryl-N-((5-(5-(difluoromethyl)-1,3,4-oxadiazol-2-yl)pyridin-2-yl)methyl)-3-fluoro-N-(3-fluorophenyl)azetidine-3-carboxamide], in test [1], the IC50 was > 50 µM. Besides, in test [2], the “HDAC6 selectivity (fold)” value is listed as 2,066 fold and the IC50 turned out to be 0.0242 µM.

Consider `CC(C)CC(=O)N1CC(F)(C(=O)N(Cc2ccc(-c3nnc(C(F)F)o3)cn2)c2cccc(F)c2)C1` [Compound 3166, N-((5-(5-(difluoromethyl)-1,3,4-oxadiazol-2-yl)pyridin-2-yl)methyl)-3-fluoro-N-(3-fluorophenyl)-1-(3-methylbutanoyl)azetidine-3-carboxamide], for which the 50% inhibitory concentration (IC50) in test [1] is > 50 µM. Besides, in test [2], the “HDAC6 selectivity (fold)” value was determined as 741 fold and the IC50 came to 0.0674 µM.

In the case of `O=C(C1CCC1)N1CC(F)(C(=O)N(Cc2ccc(-c3nnc(C(F)F)o3)cn2)c2cccc(F)c2)C1` [Compound 3168, 1-(cyclobutanecarbonyl)-N-((5-(5-(difluoromethyl)-1,3,4-oxadiazol-2-yl)pyridin-2-yl)methyl)-3-fluoro-N-(3-fluorophenyl)azetidine-3-carboxamide], the IC50 in test [1] is > 50 µM; in test [2] it was 0.0172 µM. Moreover, in test [2], the “HDAC6 selectivity (fold)” value is given as 2,906 fold.

As for `O=C(C1CCCC1)N1CC(F)(C(=O)N(Cc2ccc(-c3nnc(C(F)F)o3)cn2)c2cccc(F)c2)C1` [Compound 3169, 1-(cyclopentanecarbonyl)-N-((5-(5-(difluoromethyl)-1,3,4-oxadiazol-2-yl)pyridin-2-yl)methyl)-3-fluoro-N-(3-fluorophenyl)azetidine-3-carboxamide], the IC50 in test [1] is > 50 µM. In addition, in test [2], the “HDAC6 selectivity (fold)” value is listed as 2,808 fold and the half-inhibitory concentration (IC50) was 0.0178 µM.

Turning to `O=C(C1CCCCC1)N1CC(F)(C(=O)N(Cc2ccc(-c3nnc(C(F)F)o3)cn2)c2cccc(F)c2)C1` [Compound 3170, 1-(cyclohexanecarbonyl)-N-((5-(5-(difluoromethyl)-1,3,4-oxadiazol-2-yl)pyridin-2-yl)methyl)-3-fluoro-N-(3-fluorophenyl)azetidine-3-carboxamide], the IC50 in test [1] was > 50 µM; in test [2], 0.0242 µM. Besides, the “HDAC6 selectivity (fold)” value in test [2] is given as 2,066 fold.

For `O=C(N(Cc1ccc(-c2nnc(C(F)F)o2)cn1)c1cccc(F)c1)C1(F)CN(CC2CCCCC2)C1` [Compound 3171, 1-(cyclohexylmethyl)-N-((5-(5-(difluoromethyl)-1,3,4-oxadiazol-2-yl)pyridin-2-yl)methyl)-3-fluoro-N-(3-fluorophenyl)azetidine-3-carboxamide], the 50% inhibitory concentration (IC50) in test [1] is > 50 µM. For the same compound, in test [2], the “HDAC6 selectivity (fold)” value came to 741 fold and the half-inhibitory concentration (IC50) came to 0.0674 µM.

As to `O=C(N(Cc1ccc(-c2nnc(C(F)F)o2)cn1)c1cccc(F)c1)C1(F)CN(C2CCSCC2)C1` [Compound 3172, N-((5-(5-(difluoromethyl)-1,3,4-oxadiazol-2-yl)pyridin-2-yl)methyl)-3-fluoro-N-(3-fluorophenyl)-1-(tetrahydro-2H-thiopyran-4-yl)azetidine-3-carboxamide], in test [1], the IC50 was > 50 µM. Moreover, in test [2], the “HDAC6 selectivity (fold)” value is 2,192 fold and the concentration for half-maximal inhibition (IC50) is 0.0228 µM.

Regarding `O=C(N(Cc1ccc(-c2nnc(C(F)F)o2)cn1)c1ccccc1)C1(F)CN(CC2CCOCC2)C1` [Compound 3216], the IC50 in test [1] was > 50 µM. In test [2], the “HDAC6 selectivity (fold)” value came to 875 fold and the IC50 came out at 0.0571 µM.

With `O=C(C1CC1)N1CC(F)(C(=O)N(Cc2ccc(-c3nnc(C(F)F)o3)cn2)c2cccc(F)c2)C1` [Compound 3217, 1-(cyclopropanecarbonyl)-N-((5-(5-(difluoromethyl)-1,3,4-oxadiazol-2-yl)pyridin-2-yl)methyl)-3-fluoro-N-(3-fluorophenyl)azetidine-3-carboxamide], the figures for the 50% inhibitory concentration (IC50) in test [1] and in test [2] were > 50 µM and 0.0347 µM, respectively. The “HDAC6 selectivity (fold)” value in test [2] is 1,440 fold.

With `O=C(N(Cc1ccc(-c2nnc(C(F)F)o2)cn1)c1cccc(F)c1)C1(F)CN(CC2CCOCC2)C1` [Compound 3218], the half-inhibitory concentration (IC50) in test [1] was > 50 µM; in test [2], 0.0421 µM. Besides, the “HDAC6 selectivity (fold)” value in test [2] is recorded as 1,187 fold.

`CN1CC(N2CC(F)(C(=O)N(Cc3ccc(-c4nnc(C(F)F)o4)cn3)c3cccc(F)c3)C2)C1` [Compound 3219, N-((5-(5-(difluoromethyl)-1,3,4-oxadiazol-2-yl)pyridin-2-yl)methyl)-3-fluoro-N-(3-fluorophenyl)-1′-methyl-[1,3′-biazetidine]-3-carboxamide]: the half-maximal inhibitory concentration (IC50) in test [1] is > 50 µM. In test [2], the “HDAC6 selectivity (fold)” value is given as 988 fold and the 50% inhibitory concentration (IC50) was determined as 0.0506 µM.

Consider `CCN1CC(N2CC(F)(C(=O)N(Cc3ccc(-c4nnc(C(F)F)o4)cn3)c3cccc(F)c3)C2)C1` [Compound 3220, N-((5-(5-(difluoromethyl)-1,3,4-oxadiazol-2-yl)pyridin-2-yl)methyl)-1′-ethyl-3-fluoro-N-(3-fluorophenyl)-[1,3′-biazetidine]-3-carboxamide], for which the concentration for half-maximal inhibition (IC50) in test [1] is > 50 µM. In addition, in test [2], the “HDAC6 selectivity (fold)” value is 1,272 fold and the IC50 was found to be 0.0393 µM.

Take `CCCCN1CC(N2CC(F)(C(=O)N(Cc3ccc(-c4nnc(C(F)F)o4)cn3)c3cccc(F)c3)C2)C1` [Compound 3222, 1′-butyl-N-((5-(5-(difluoromethyl)-1,3,4-oxadiazol-2-yl)pyridin-2-yl)methyl)-3-fluoro-N-(3-fluorophenyl)-[1,3′-biazetidine]-3-carboxamide]: the IC50 in test [1] is > 50 µM. In test [2], the “HDAC6 selectivity (fold)” value is on record as 1,420 fold and the 50% inhibitory concentration (IC50) stood at 0.0352 µM.

Take `CC(C)CN1CC(N2CC(F)(C(=O)N(Cc3ccc(-c4nnc(C(F)F)o4)cn3)c3cccc(F)c3)C2)C1` [Compound 3223, N-((5-(5-(difluoromethyl)-1,3,4-oxadiazol-2-yl)pyridin-2-yl)methyl)-3-fluoro-N-(3-fluorophenyl)-1′-isobutyl-[1,3′-biazetidine]-3-carboxamide]: in test [1], the IC50 was > 50 µM. Further, in test [2], the “HDAC6 selectivity (fold)” value was 1,424 fold and the 50% inhibitory concentration (IC50) worked out at 0.0351 µM.

With `CC(C)N1CC(N2CC(F)(C(=O)N(Cc3ccc(-c4nnc(C(F)F)o4)cn3)c3cccc(F)c3)C2)C1` [Compound 3224], the figures for the IC50 in test [1] and in test [2] were > 50 µM and 0.0377 µM, respectively. In test [2], the “HDAC6 selectivity (fold)” value was 1,326 fold.
